According to patent US10662210B2, “Compositions and methods comprising osmium for the treatment of cancers” (Massachusetts Institute of Technology, priority 2014, dated 2020):

What was measured:
[1] = tested on: HMLER^tax CSC-enriched; assay: Cytotoxicity against CSC-enriched breast cancer cells; format: cell-based; settings: for HMLER^tax selectivity: CSC-enriched vs CSC-depleted
Source text: (§1) Cancer relapse is strongly linked to the existence of CSCs. […] Conventional chemotherapy and radiotherapy are often ineffective against CSCs. Although current therapies effectively reduce tumor mass by destroying the bulk of cancer cells, they are unable to remove CSCs, which persist and generate new tumors, often of a far more aggressive nature. Therefore, in order to improve clinical outcomes, treatments must have the ability to kill the entirety of cancer cells, including CSCs. The osmium compound, described in Formula (I), wherein X^1, X^2, and X^3 were chloride ligands and the bidentate ligand was a 1,10-phenanthroline ligand, was able to kill breast cancer cells (HMLER) enriched with CSCs, 2.3-fold better than CSC-depleted breast cancer cells. […] The selectivity of the osmium compound can be seen in Table 2 as well as FIGS. 17A-B and 18.
(§2) The colorimetric MTT assay was used to determine the toxicity of the osmium complexes and cisplatin. Cells (2×10^3) were seeded in each well of a 96-well plate. After incubating the cells overnight, various concentrations of test compound (0.3-100 μM) were added and incubated for 72 h (total volume 200 μL). The test compounds were prepared as 10 mM solutions in DMSO and diluted using media. The final concentration of DMSO in each well was 0.5% and this amount was present in the untreated control as well. Cisplatin was prepared as a 5 mM solution in PBS and diluted further using media. After 72 h, the medium was removed, 200 μL of a 0.4 mg/mL solution of MTT in DMEM or RPMI was added, and the plate was incubated for an additional 1-2 h. The DMEM/MTT or RPMI/MTT mixture was aspirated and 200 μL of DMSO was added to dissolve the resulting purple formazan crystals. The absorbance of the solution wells was read at 550 nm. Absorbance values were normalized to DMSO-containing control wells and plotted as concentration of test compound versus % cell viability. IC50 values were interpolated from the resulting dose dependent curves. The reported IC50 values are the average from at least three independent experiments, each of which consisted of six replicates per concentration level.

[2] = tested on: HMLER CSC-depleted; assay: Cytotoxicity against CSC-depleted breast cancer cells; format: cell-based
Source text: as §1, §2

[3] = tested on: A2780 cells; assay: Cytotoxicity MTT assay with pathway and cell death inhibitors; format: cell-based, human; settings: salubrinal 10 μM
Procedure: This finding led to the investigation of the possibility that 4 may induce endoplasmic reticulum (ER) stress. Co-administration of 4 and salubrinal (10 μM), a known ER stress inhibitor, reduced the cytotoxicity of 4 in A2780 cells. […] To further validate the ER as the main target for 4, the expression of proteins related to the unfolded protein response (UPR) was monitored. […] ER membrane expansion is widely associated with ER stress. With this fact in mind the ER size of A2780 cells upon incubation with 4 were examined using fluorescence microscopy. Relative to untreated controls (FIG. 3B), cells exposed to 4 (10 μM) for 4 h had 25.1% larger ER coverage (FIG. 3C). The ER size relative to the whole cell of the untreated controls was about 30% and the ER size relative to the whole cell of the treated samples was about 55%.
Having established the intracellular targets of 2 and 4, the role of p53, a cell cycle and apoptosis regulator, in the cellular responses evoked was investigated. […] Therefore, p53 played a fundamental role in coordinating the cellular response to 2-induced DNA damage. […] (FIG. 13). […] To relate p53 to potency, cytotoxicity studies were conducted in the presence of p53 inhibitors pifithrin-α and pifithrin-μ. (both 10 μM). […] The IC50 values of compound 2 in the absence and presence of p53 inhibitor pifithrin-μ after 72 hours incubation was about 2 μM and about 30 μM, respectively.
as §2
For specific pathway and cell death inhibitor assays, inhibitors of p53 (pifithrin-α, 10 μM and pifithrin-μ, 10 μM), ER stress (salubrinal, 10 μM), necrosis (IM-54, 10 μM), and autophagocytosis (chloroquine, 10 μM) were added to cells and incubated for 0-1 h prior to treatment with the test compounds.

[4] = tested on: MRC-5 (lung normal); assay: Cytotoxicity MTT assay; format: cell-based, human; settings: 72 h
Procedure: (§3) The anti-proliferative properties of 1-4 against a panel of human cancer cell lines were assessed by the MTT [3-(4,5-dimethylthiazol-2-yl)-2,5-diphenyltetrazolium bromide] assay. Cisplatin was included as a control. The IC50 values, concentrations required to induce 50% viability, were derived from dose-response curves and are summarized in Table 1.
(§4) A549 lung adenocarcinoma, HeLa cervical cancer, and MRC5 normal human fetal lung fibroblast cell lines were maintained in Dulbecco's Modified Eagle's Medium (DMEM-low glucose) supplemented with 10% fetal bovine serum and 1% penicillin/streptomycin. The cisplatin-sensitive A2780 ovarian cancer and the cisplatin-resistant A2780/CP70 ovarian cancer cell lines were cultured in RPMI (glutamine free) media supplemented with 10% fetal bovine serum and 1% penicillin/streptomycin. All cells were grown at 310 K in a humidified atmosphere containing 5% CO2.
as §2

[5] = tested on: A549 (lung); assay: Cytotoxicity MTT assay; format: cell-based, human; settings: 72 h
Procedure: as §3, §4, §2

[6] = tested on: A2780 (ovarian); assay: Cytotoxicity MTT assay; format: cell-based, human; settings: MTT, 72 h
Procedure: as §3, §4, §2

[7] = tested on: HeLa (cervical); assay: Cytotoxicity MTT assay; format: cell-based, human; settings: 72 h
Procedure: as §3, §4, §2

[8] = tested on: A2780/CP70 (ovarian); assay: Cytotoxicity MTT assay; format: cell-based, human; settings: 72 h, cisplatin-resistant
Procedure: as §3, §4, §2

[9] = Water-octanol partition coefficient (log P), shake-flask method with GF-AAS; format: physicochemical; settings: room temperature, 50 μM
Procedure: Those of ordinary skill in the art would be knowledgeable of methods of determining the water-octanol partition coefficient of compounds. For example, the log P of a compound may be obtained using the shake-flask method and graphite furnace atomic absorption spectroscopy (GF-AAS). Briefly, in the shake-flask method, octanol is pre-saturated with water by overnight incubation with shaking of a biphasic mixture of the two at room temperature. A portion of 0.5 mL water containing 50 μM of the given compound is incubated with the pre-saturated octanol (0.5 mL) in a 1.5 mL tube. The tube is shaken at room temperature for 3 hours. The two phases are separated by centrifugation and the osmium content (concentration) in each phase is determined by GFAAS. The log P is then calculated using the formula below: log P=log 10[(concentration of osmium in the octanol layer)/(concentration of osmium in the water layer)].
The log P values were obtained using the shake-flask method and graphite furnace atomic absorption spectroscopy (GF-AAS). Octanol used in this experiment was pre-saturated with water by overnight incubation with shaking of a biphasic mixture of the two at room temperature. A portion of 0.5 mL water containing 50 μM of the given compound was incubated with the pre-saturated octanol (0.5 mL) in a 1.5 mL tube. The tube was shaken at room temperature for 3 h. The two phases were separated by centrifugation and the osmium content (concentration) in each phase was determined by GFAAS. All the experiments were carried out in triplicate. The log P was then calculated using the formula below: Log P=log 10[(conc. of osmium in the octanol layer)/(conc. of osmium in the water layer)].

Q: Which IC50 [1] does the source give for CC(=O)[O][Pt]([NH2])([Cl])([Cl])([NH]C1CCCCC1)[O]C(C)=O [satraplatin] here?
A: 2.87 µM

Q: And the “HMLER^tax selectivity” value [1]?
A: 0.43

Q: What about the IC50 [2] of the same molecule?
A: 1.22 µM

Q: With abamectin as the molecule, how does the IC50 [1] read?
A: 0.64 µM

Q: And the “HMLER^tax selectivity” value [1]?
A: 2.26

Q: And the IC50 [2]?
A: 1.45 µM

Q: For O=C1[O][Pt]2([NH][C@@H]3CCCC[C@H]3[NH]2)[O]C1=O [oxaliplatin], which IC50 [1] is on record?
A: 26.9 µM

Q: And the “HMLER^tax selectivity” value [1]?
A: 0.55

Q: And the IC50 [2]?
A: 15 µM

Q: Which “effect of salubrinal on toxicity” value [3] does the source give for N.N.[Cl][Pt][Cl] [cisplatin, reference compound] here?
A: limited effect

Q: And the IC50 [4]?
A: 11.1 ± 1.33 µM

Q: And the IC50 [5]?
A: 3.59 ± 0.92 µM

Q: What about the IC50 [6] of the same molecule?
A: 1.41 ± 0.37 µM

Q: And the IC50 [7]?
A: 2.83 ± 0.06 µM

Q: What about the IC50 [8] of the same molecule?
A: 10.3 ± 1.5 µM

Q: What about the IC50 [1] of the same molecule?
A: 2.06 µM

Q: What about the “HMLER^tax selectivity” value [1] of the same molecule?
A: 0.95

Q: What about the IC50 [2] of the same molecule?
A: 1.95 µM

Q: What does the source list for CC[C@@H](C(=O)[C@@H](C)[C@@H](O)[C@H](C)[C@@H]1O[C@@H]([C@@H](CC)C(=O)O)CC[C@@H]1C)[C@H]1O[C@]2(C=C[C@@H](O)[C@]3(CC[C@@](C)([C@H]4CC[C@](O)(CC)[C@H](C)O4)O3)O2)[C@H](C)C[C@@H]1C [salinomycin]?
A: IC50 [1]: 0.058 µM; HMLER^tax selectivity [1]: 8.45; IC50 [2]: 0.49 µM

Q: Which IC50 [1] does the source give for N.N.O=C([O-])C1(C(=O)[O-])CCC1.[Pt+2] [carboplatin] here?
A: 18.2 µM

Q: And the “HMLER^tax selectivity” value [1]?
A: 0.98

Q: What about the IC50 [2] of the same molecule?
A: 17.8 µM

Q: With OsN(2,2′-bipyridine)Cl3 [Complex 1] as the molecule, how does the “log P (water-octanol coefficient)” value [9] read?
A: 0.71

Q: And the IC50 [4]?
A: 21.6 ± 4.85 µM

Q: What about the IC50 [5] of the same molecule?
A: 6.11 ± 0.87 µM

Q: And the IC50 [6]?
A: 3.8 ± 0.21 µM

Q: What about the IC50 [7] of the same molecule?
A: 9.24 ± 0.58 µM

Q: What about the IC50 [8] of the same molecule?
A: 3.94 ± 1.75 µM

Q: With CC1=C[N]2c3c4c(ccc3=C1C)=C(C)C(C)=C[N]4[Os]2(#[N])([Cl])([Cl])[Cl] [Complex 3, OsN(3,4,7,8-tetramethyl-1,10-phenanthroline)Cl3] as the molecule, how does the “log P (water-octanol coefficient)” value [9] read?
A: 1.54

Q: And the IC50 [4]?
A: 17.2 ± 2.16 µM

Q: And the IC50 [5]?
A: 14.9 ± 1.63 µM

Q: And the IC50 [6]?
A: 7.97 ± 1.41 µM

Q: What about the IC50 [7] of the same molecule?
A: 6.34 ± 0.52 µM

Q: And the IC50 [8]?
A: 3.91 ± 0.26 µM
